{"source": "patent US7875638B2", "about": "“Synthesis of epothilones, intermediates thereto, analogues and uses thereof” (Sloan-Kettering Institute for Cancer Research, priority 2002, dated 2011)", "key": {"[1]": {"test_system": "RPMI8226 myeloma cells", "experiment": "Pulse exposure, washout and cell count", "format": "cell-based, human"}, "[2]": {"test_system": "human mammary carcinoma MX-1 xenograft", "settings": "mouse, in vivo"}, "[3]": {"test_system": "caspase 3", "experiment": "Caspase 3 activation by Western blot", "format": "cell-based, human", "settings": "myeloma cells", "source_text": "It is not clear whether caspase is involved in this process. Firstly, we investigated the activation of caspase 3, an effector caspase in the caspase pathway, in myeloma cells, by Western blot. […] Immunohistochemical staining of CAG myeloma cells using antibody specific to cleaved caspase-3 was used to show cytoplasmic and perinuclear localization features in apoptotic cells. […] Secondly, we attempted to assay the activity of caspase 8 and 9, initiator caspase in the caspase pathway, by fluorometric method. […] Note that increased caspase 9 activity was more prominent than caspase 8. The signals triggering the activation of caspase 8 or 9 are actively under investigation."}, "[4]": {"experiment": "Solubility in water", "settings": "water"}, "[5]": {"test_system": "RL", "experiment": "XTT cell growth inhibition, RL", "format": "cell-based", "settings": "Homo sapiens, read-out: IC50 (nM), RL"}, "[6]": {"test_system": "CAG myeloma cell lines", "experiment": "Annexin V staining, CAG", "format": "cell-based, human", "settings": "24 hours treatment", "source_text": "In early apoptotic cells, the membrane phospholipids phosphatidylserine (PS) is translocated from the inner to the outer leaflet of the plasma membrane, thereby exposing PS to the external cellular environment. Annexin V is a 35-36 kD Ca^2+ dependent phospholipids-binding protein that has a high affinity for PS, and binds to cells with exposed PS. In conjunction with a vital dye such as 7-amino-actinomycin (7-AAD) staining dead cells, this assay allows to identify early apoptotic cells. […] Note that X-axis is Annexin staining and Y-axis is 7-AAD staining."}, "[7]": {"test_system": "RPMI-8226 (human multiple myeloma cell line)", "experiment": "Global gene expression (Affymetrix chip AU133 2.0)", "format": "cell-based"}, "[8]": {"test_system": "human mammary carcinoma MX-1 xenograft", "experiment": "MX-1 xenograft in nude mice", "settings": "mouse, in vivo"}, "[9]": {"experiment": "in vitro", "settings": "human, s9", "quoted_text": "Stability of epothilones in mouse and in human liver S9 fraction. The stability study was carried out with a fully automated HPLC system which consisted of a Prospekt-2 (Spark Holland, Netherlands) sample preparation system and an Agilent 1100 HPLC system. Briefly, the Prospekt 2 picked up a C8 extraction cartridge and washed it with acetonitrile and water. The Agilent autosampler, set at 37° C., picked up 20 μl of the sample, loaded it onto the cartridge, washed it with water, then the Prospekt-2 diverted the mobile phase stream through the extraction cartridge onto the analytical column, Reliance Stable Bond C8 4×80 mm with guard column (MacMod, Chadds Ford, Pa.) and the eluent was monitored at 250 nm. […] Sample preparation involved the addition of equal volumes of plasma to PBS for a total volume of 300-400 μl, filtered, and the addition of 0.5-2 μl of the substrate (20 mM) to achieve about 30-50 mAU at 250 nm in the HPLC analysis. For pooled human liver microsome S9 fraction (Xeno Tech, Lenex, Kans.), 20 μl (400 μg) or S9 fraction was mixed with 280 μl of PBS then proceeded as above. The sampling period was controlled by the autosampler and peak area data were collected to compare the rate of disappearance of the parent compound.\nStability of epothilones in mouse and in human liver S9 fraction: The stability study was carried out with a fully automated HPLC system which consisted of a Prospekt-2 (Spark Holland, Netherlands) sample preparation system and an Agilent 1100 HPLC system. Briefly, the Prospekt 2 picked up a C8 extraction cartridge and washed it with acetonitrile and water. The Agilent autosampler, set at 37° C., picked up 20 μl of the sample, loaded it onto the cartridge, washed it with water, then the Prospekt-2 diverted the mobile phase stream through the extraction cartridge onto the analytical column, Reliance Stable Bond C8 4×80 mm with guard column (MacMod, Chadds Ford, Pa.) and the eluent was monitored at 250 nm. […] Sample preparation involves the addition of equal volumes of plasma to PBS for a total volume of 400 μl, filtered, and the addition of 0.5-2 μl of the substrate (20 mM) to achieve about 30-50 mAU at 250 nm in the HPLC analysis. For pooled human liver microsome S9 fraction (Xeno Tech, Lenex, Kans.), 20 μl (400 μg) or S9 fraction was mixed with 280 μl of PBS then proceeds as above. The sampling period was controlled by the autosampler and peak area data were collected to compare the rate of disappearance of the parent compound."}, "[10]": {"test_system": "SKI-DLBCL", "experiment": "XTT cell growth inhibition, SKI-DLBCL", "format": "cell-based", "settings": "Homo sapiens; Lymphoma; XTT tetrazonium assay"}, "[11]": {"experiment": "Octanol-water partition (POW) number by HPLC", "format": "physicochemical", "settings": "HPLC estimate, pH 7.4 buffer; read-out: Lipophilicity octanol/water partition (POW)", "protocol": "Determination of partition of octanol-water (POW) number. An HPLC method is used to estimate octanol-water partition. An Agilent 1100 HPLC system is used with an eclipse XDB C18 column 4.6×250 mm with a mobile phase of 60% acetonitrile/40% 25 mM potassium phosphate buffer at pH 7.4 with a flow rate of 0.8 ml per min. and the eluent is monitored at 250 nm. The standards used are benzyl alcohol, acetophenone, benzophenone, naphthalene, diphenyl ether and dibenzyl with known POW of […] respectively. Sodium dichromate is used to evaluate time zero which is 2.5 min and the retention times for the standards are 3.9, 5.4, 10.6, 14, 18.7 and 19.8 min, respectively. The k value is calculated by the formula of k=(trt−t0)/t0. Linear regression of log k vs. log POW gives a straight line with r^2=0.966. This graph is used to evaluate the POW value of the epothilone analogs."}, "[12]": {"test_system": "MRC-5", "experiment": "XTT cell growth inhibition, MRC-5", "format": "cell-based, human", "settings": "Homo sapiens, MRC5, read-out: IC50 (nM), MRC-5"}, "[13]": {"test_system": "IGROV", "experiment": "XTT cell growth inhibition, IGROV", "format": "cell-based", "settings": "Homo sapiens, read-out: IC50 (nM), IGROV"}, "[14]": {"test_system": "OPM-2", "experiment": "XTT cell growth inhibition, OPM-2", "format": "cell-based", "settings": "Homo sapiens, OPM-2, read-out: IC50 (nM), OPM-2"}, "[15]": {"test_system": "RPMI8226 myeloma cell lines", "experiment": "Cell cycle analysis (propidium iodide DNA staining), RPMI8226", "format": "cell-based, human", "settings": "31.25 nM", "source_text": "RPMI8226 myeloma cell lines were used."}, "[16]": {"test_system": "human xenografts in nude mice, such as MX-1", "settings": "mouse, in vivo"}}, "data": [{"smiles": "C/C1=C/CC(/C(C)=C/c2csc(C)n2)OC(=O)C[C@H](O)C(C)(C)C(=O)[C@H](C)[C@@H](O)[C@@H](C)CCC1", "note": "(stereo partly drawn) [Compound 1, 12,13-desoxyepothilone B, reference compound]", "values": [{"measurement": "Decrease of the number of cells from input", "setting": "[1]; 4-8 hrs exposure, washout, incubation up to 48 hrs", "result": "slowed cell expansion"}, {"measurement": "Cell death after pulse exposure", "setting": "[1]; 24 hrs exposure", "result": "all cells being dead by 48 hrs"}, {"measurement": "Decrease of tumor cell numbers", "setting": "[1]; one hour exposure, washout, 48 hrs", "result": "reduced but did not prevent tumor cell expansion"}, {"measurement": "Decrease in body weight without lethality", "setting": "[2]", "result": 31, "unit": "%"}, {"measurement": "Cleaved caspase 3 (Western blot)", "setting": "[3]", "result": "increased 17 kd cleaved caspase 3"}, {"measurement": "solubility", "setting": "[4]", "result": 9.4, "unit": "µg/mL"}, {"measurement": "IC50", "setting": "[5]", "result": "90 ± 11", "unit": "nM"}, {"measurement": "Apoptosis (Annexin V / 7-AAD)", "setting": "[6]", "result": "majority of cells either enter apoptosis or are dead"}, {"measurement": "Increase in expression, OAS2", "setting": "[7]; 6 hrs or 18 hrs of dEpoB treatment", "result": "+2"}, {"measurement": "Increase in expression, MX1", "setting": "[7]; 18 hrs of dEpoB treatment", "result": "+2.3"}, {"measurement": "Changes of body weight (%) on day 4 after stopping administration", "setting": "[8]", "result": "−25.3 ± 2.1", "unit": "%"}, {"measurement": "Changes of body weight (%) on day 8 after stopping administration", "setting": "[8]", "result": "−9.1 ± 4.1", "unit": "%"}, {"measurement": "half-life", "setting": "[9]", "result": "1 ± 0.1", "unit": "h"}, {"measurement": "IC50", "setting": "[10]", "result": "72 ± 9.8", "unit": "nM"}, {"measurement": "chromatographic logP", "setting": "[11]", "result": 4.4}, {"measurement": "IC50", "setting": "[12]", "result": "8.2 ± 4.3", "unit": "nM"}, {"measurement": "IC50", "setting": "[13]", "result": "15 ± 3.8", "unit": "nM"}, {"measurement": "IC50", "setting": "[14]", "result": "38.9 ± 3.3", "unit": "nM"}, {"measurement": "Cell cycle arrest", "setting": "[15]", "result": "absolutely blocked cell cycle at G2M phase"}, {"measurement": "Dose accomplishing complete suppression of tumor in a variety of xenografts", "setting": "[16]", "result": 30, "unit": "mg/kg"}, {"measurement": "Maximal b.w. % drop without death", "setting": "[16]", "result": 32, "unit": "%"}]}]}
